# “And” between values parts separate entries of the source, which are not always exact repeats. Equal values may be shown once.
# Experiments:
# purified AR-LBD protein = molecular target: T1, purified AR-LBD protein (Homo sapiens, UniProt P10275); assay: In vitro competitive radioligand binding assay with [3H]MIB; conditions: relative to DHT
# T1 construct: purified AR-LBD protein
# [1] = system: ER-positive metastatic breast cancer; assay: Phase 2 clinical trial (G200801), 9 mg daily; type: in vivo, women
# Procedure: The goal of this study was to determine the importance of the AR status as a therapeutic target in women with ER-positive metastatic breast cancer (MBC) that had previously responded to hormone therapy. The treatment was continued until disease progression (PD).
# CBR will be correlated with AR status of metastatic tumor biopsy.
# Serum prostate specific antigen (PSA) was evaluated as a biomarker of AR activity.
# Female subjects with ER-positive metastatic breast cancer who have previously been treated with up to 3 prior hormonal therapies for the treatment of breast cancer. Subjects must have been treated with and responded to previous adjuvant therapy for ≥3 years or hormonal therapy for metastatic disease for >6 months prior to progression. Details of subject selection criteria are presented below:
# Measurable and non-measurable lesions (primary and/or metastatic) were identified and assessed by a modified Response Evaluation Criteria In Solid Tumors (RECIST 1.1) classification over the course of this study (described in detail below).
# The primary efficacy analysis was the clinical benefit in subjects with AR-positive breast cancer at 6 months as measured by a modified Response Evaluation Criteria In Solid Tumors (RECIST 1.1) classification. Key secondary endpoints of clinical benefit in all subjects and AR-negative subjects, as well as objective response rate, progression free survival, time to progression, duration of response, incidence of SREs, and time to first SRE in subsets based on AR status (i.e., all subjects, AR-positive subjects, and AR-negative subjects) was also assessed. Effects on CA 27-29, PSA, bone turnover markers, QOL, and libido were assessed as tertiary endpoints.
# Clinical benefit in a subject is defined as a complete response [CR], a partial response [PR] or stable disease [SD] as measured by modified RECIST 1.1, which is described in detail below. (Eisenhauer E A et al. New response evaluation criteria in solid tumors: revised RECIST guideline (version 1.1). European Journal of Cancer 45:228-247, 2009).
# [2] = system: BR-0001 AR-positive TNBC tumor; assay: BR-0001 TNBC patient tumor xenograft in NSG mice; type: in vivo
# Procedure: Xenograft experiment. NSG mice obtained from JAX labs were housed with five animals per cage and were allowed free access to tap water and commercial rat chow (Harlan Teklad 22/5 rodent diet—8640). During the course of the study, the animals were maintained on a 12 hr light:dark cycle. Animals were anesthetized and BR-0001 TNBC fragments of 1 mm^3 (approximately) were implanted subcutaneously in NSG mice. […] Tumor volume was measured thrice weekly. Tumor volume was calculated using the formula length×width×width×0.5236. Once tumors reached greater than 1500-2000 mm^3, animals were sacrificed and tumors weighted and stored for various analysis. Two regions of the same BR-0001 tumor, an AR-positive TNBC xenograft, were immunohistochemically stained with AR antibody (AR N20 from SCBT) (FIGS. 26A and 26B) and compared to an AR-negative (FIG. 26C) TNBC as a negative control. […] The tumor xenograft efficacy experimental results are provided in 27A-27C, with FIGS. 27A and 27B being replicate experiments.
# [3] = system: HCC-38 triple negative breast cancer cells; assay: SRB cell viability, HCC-38 cells infected with adenovirus containing LacZ or AR; type: cell-based; conditions: 3 days
# Procedure: The SRB assay was used to determine cell number during cytotoxocity experiments. The following protocol was used: • 1. Cells were detached with 0.25% trypsin. • 2. Experimental cultures were cultured in 96-well microtiter plates (200 uL growth medium per well; 1,000-200,000 cells per well). • 3. Cultures were fixed with 50 uL 50% TCA (4° C.). (see cell fixation protocol for details). • 4. Fixed cells were stained with 50 uL 0.4% (wt/vol) SRB in 1% acetic acid for 10 minutes. • 5. SRB was removed and the cultures were quickly* rinsed 5 times with 1% acetic acid to remove unbound dye.** • 6. Cultures were air-dried overnight until there was no visible moisture. • 7. The cellular protein-bound SRB was dissolved with 200 uL unbuffered Tris base (10 mM, pH 10.5) for 30 minutes on a rocking platform shaker. • 8. Absorbance was read at 540 nm. * quickly performing rinsing process was to prevent desorption of protein-bound SRB ** completely removed residual wash solution by sharply flicking plates over sink.
# The following protocol was used for fixing cells: • a. 50 uL of 50% TCA (4° C.) was gently layered on the top of growth medium in each well to make a final TCA concentration of 10%. • b. Cultures were incubated at 4° C. for 1 hour. • c. Cultures were washed 5 times with tap water to remove TCA, growth medium, low-molecular-weight metabolites, and serum protein. • d. […]
# [4] = 9 mg daily, individual patients
# T1 sequence (P10275 669-900 limits assumed): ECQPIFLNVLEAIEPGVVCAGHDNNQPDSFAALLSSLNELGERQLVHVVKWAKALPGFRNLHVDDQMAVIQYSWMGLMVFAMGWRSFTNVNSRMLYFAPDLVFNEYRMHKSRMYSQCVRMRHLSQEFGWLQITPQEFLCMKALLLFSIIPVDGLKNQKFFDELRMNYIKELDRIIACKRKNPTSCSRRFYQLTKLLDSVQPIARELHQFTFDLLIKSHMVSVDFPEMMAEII
compound,measurement,setting,value
"C[C@](O)(COc1ccc(C#N)cc1)C(=O)Nc1ccc(C#N)c(Cl)c1 [Formula VIII, (S)—N-(3-chloro-4-cyanophenyl)-3-(4-cyanophenoxy)-2-hydroxy-2-methylpropanamide]",relative binding affinities (RBAs) for AR,purified AR-LBD protein,0.314
"C[C@](O)(COc1ccc(C#N)cc1)C(=O)Nc1ccc(C#N)c(C(F)(F)F)c1 [Formula IX, (S)—N-(4-Cyano-3-(trifluoromethyl)phenyl)-3-(4-cyanophenoxy)-2-hydroxy-2-methylpropanamide]",CR or PR,[1]; 9 mg daily,no CR or PR has been observed
same,adverse event: A-fib,[1]; 9 mg daily,1
same,adverse event: anxiety/emotional changes,[1]; 9 mg daily,5
same,adverse event: arthralgia,[1]; 9 mg daily,6
same,adverse event: bloating,[1]; 9 mg daily,2
same,adverse event: bruising,[1]; 9 mg daily,1
same,adverse event: cellulitis,[1]; 9 mg daily,1
same,adverse event: chills,[1]; 9 mg daily,1
same,adverse event: constipation,[1]; 9 mg daily,2
same,adverse event: cough,[1]; 9 mg daily,1
same,adverse event: dehydration,[1]; 9 mg daily,1
same,adverse event: diarrhea,[1]; 9 mg daily,3
same,adverse event: dizziness,[1]; 9 mg daily,2
same,adverse event: dysgeusia,[1]; 9 mg daily,1
same,adverse event: dyspepsia,[1]; 9 mg daily,1
same,adverse event: dyspnea,[1]; 9 mg daily,3
same,adverse event: edema,[1]; 9 mg daily,2
same,adverse event: fatigue,[1]; 9 mg daily,14
same,adverse event: fever,[1]; 9 mg daily,1
same,adverse event: flatulence,[1]; 9 mg daily,1
same,adverse event: glaucoma,[1]; 9 mg daily,1
same,adverse event: headache,[1]; 9 mg daily,4
same,adverse event: hot flash night sweats,[1]; 9 mg daily,7
same,adverse event: hypertension,[1]; 9 mg daily,2
same,adverse event: infection,[1]; 9 mg daily,1
same,adverse event: insomnia,[1]; 9 mg daily,2
same,adverse event: myalgia,[1]; 9 mg daily,5
same,adverse event: nail discoloration,[1]; 9 mg daily,1
same,adverse event: nausea,[1]; 9 mg daily,11
same,adverse event: pain,[1]; 9 mg daily,22
same,adverse event: paresthesia,[1]; 9 mg daily,1
same,adverse event: pleural effusion,[1]; 9 mg daily,1
same,adverse event: polyuria,[1]; 9 mg daily,1
same,adverse event: post menopausal bleeding,[1]; 9 mg daily,3
same,adverse event: stiffness,[1]; 9 mg daily,1
same,adverse event: tendonitis,[1]; 9 mg daily,1
same,adverse event: vision changes,[1]; 9 mg daily,3
same,adverse event: vomiting,[1]; 9 mg daily,2
same,adverse event: weight gain,[1]; 9 mg daily,2
same,adverse event: weight loss,[1]; 9 mg daily,2
same,"duration of stable disease, one ongoing subject",[1]; 9 mg daily,> 336 days
same,"liver enzymes (ALT, AST and bilirubin)",[1]; 9 mg daily,returned to baseline
same,median duration of SD as best response,[1]; 9 mg daily,212 days
same,median time to PD,[1]; 9 mg daily,80 days
same,patients who reached 6 m that are AR-positive with SD and increased PSA,[1]; 9 mg daily,six
same,patients with increased PSA levels,[1]; 9 mg daily,20 of the 22
same,subjects with progressive disease at 6 months or prior,[1]; 9 mg daily,N = 12
same,tolerability,[1]; 9 mg daily,well-tolerated
same,patients with PD (current disposition),"[1]; 9 mg daily, 22 patients",15
same,patients with SD (current disposition),"[1]; 9 mg daily, 22 patients",4
same,subjects achieving CB as best response,"[1]; 9 mg daily, all subjects",41%
same,Current Disposition,[1]; [4],D/C (2×) and Deceased (4×)
same,Day 84 RECIST,[1]; [4],D/C SAE and PD SAE and D/C
same,MAX PSA F/U,[1]; [4],2.430 and 0.058 and 0.008 and <0.007 and 0.078 and 0.217 and 9.610 and 0.450 and 3.540 and 0.238 and 8.180 and 0.548 and 0.062 and 0.024 and 13.160 and 0.069 and 0.031 and 0.795 and 0.301 and 0.028 and 0.046 and 0.092
same,tolerability,"[1]; 9 mg daily, listed as Enobosarm",well tolerated
same,tumor regression in one subject with SD,"[1]; 9 mg daily, single target lesion",27%
same,6-month Kaplan-Meier estimate for radiographic progression free survival,[1]; 9 mg oral daily,43.8%
same,clinical benefit rate at 6 months,[1]; 9 mg oral daily,35.3%
same,Progression free probability,[1]; Day 84,57.5%
same,Progression free probability,[1]; Day 168,50.5%
same,time to progression (TTP),[1]; seven subjects who achieved CB at six months,10.2 months
same,BR-0001 tumor growth,[2]; 10 mg/kg/day orally,some tumor growth inhibition
same,reduction of tumor weight,"[2]; 10 mg/kg/day, experiment 2",~40%
same,reduction in Ki-67 staining,[2]; 2 weeks of treatment,approximately 50%
same,HCC-38 cell growth,[3],inhibited

# From US20230172897A1, “METHODS OF TREATING BREAST CANCERS WITH SELECTIVE ANDROGEN RECEPTOR MODULATORS AND ADDITIONAL THERAPEUTIC AGENTS” (VERU, INC., priority 2021, published 2023)
